Target: 5-hydroxytryptamine receptor 5A (Homo sapiens, UniProt P47898)
Experiment: Binding Inhibition Assay: A solution of the compound to be tested and 100 μM 5-CT (5-carboxamidetriptamine) in DMSO was added to a 96-well plate at 2 μl/well, suspended in an incubation buffer, and a membrane from HEK293 cells for forced expressions of a human 5-HT5A receptor prepared at 200 ug/ml was added at 100 μl/well. After incubation at room temperature for 15 minutes, a [3H]5-CT solution (2 nM [3H]5-CT, incubation buffer) was added thereto at 100 μl/well.Separately, 100 μl of the solution was distributed into a liquid scintillation vial, and 2 ml of Aquasol II (registered trademark) was added thereto, followed by stirring. Then, radioactivity was measured by a liquid scintillation counter. It was incubated at 37C. for 60 minutes. The reaction mixture was sucked into 96-well GF/C filter plate that had been pre-treated with 0.2% polyethyleneimine, and washed six times with an ice-cooled, 50 mM Tris (pH 7.5) buffer. The GF/C filter plate was dried.
Format: cell membranes

Sequence of 5-hydroxytryptamine receptor 5A (P47898 whole entry): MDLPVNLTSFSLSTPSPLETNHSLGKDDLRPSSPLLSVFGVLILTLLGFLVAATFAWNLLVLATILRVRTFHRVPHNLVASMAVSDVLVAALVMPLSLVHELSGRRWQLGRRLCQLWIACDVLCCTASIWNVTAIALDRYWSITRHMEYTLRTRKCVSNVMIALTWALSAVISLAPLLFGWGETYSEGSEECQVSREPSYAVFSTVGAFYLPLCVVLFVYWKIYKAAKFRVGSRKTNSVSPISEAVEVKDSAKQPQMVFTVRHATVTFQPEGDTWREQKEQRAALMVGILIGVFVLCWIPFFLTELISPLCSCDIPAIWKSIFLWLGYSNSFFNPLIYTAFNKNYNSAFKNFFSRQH

Ki: 4.6 nM
Structure (SMILES): NC(N)=NC(=O)c1ccc2c(C(F)F)cnc(-c3c(F)cccc3F)c2c1

Source: ChEMBL document CHEMBL3638868, “Nitrogenous-ring acylguanidine derivative” (2014)
